In patent US20210309669A1, “Heterocyclic Spiro Compounds As MAGL Inhibitors” (Pfizer Inc., priority 2018, published 2021):

Assays:
[1] = molecular target: T1, human recombinant Monoacylglycerol Lipase (Homo sapiens, UniProt Q99685); test: MAGL inactivation (enzyme progress curves, kinact/KI); format: biochemical; details: geometric mean
T1 sequence (Q99685 1-303): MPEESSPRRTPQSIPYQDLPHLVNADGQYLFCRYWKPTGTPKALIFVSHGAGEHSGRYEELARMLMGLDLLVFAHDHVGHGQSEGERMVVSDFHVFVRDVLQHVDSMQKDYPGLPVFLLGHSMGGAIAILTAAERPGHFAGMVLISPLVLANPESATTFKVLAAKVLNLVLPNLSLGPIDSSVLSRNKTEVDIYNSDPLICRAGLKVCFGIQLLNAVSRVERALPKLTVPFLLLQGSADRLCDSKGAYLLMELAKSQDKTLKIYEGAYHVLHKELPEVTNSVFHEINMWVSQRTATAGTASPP
Protocol: Assessment of MAGL inhibition utilizes human recombinant Monoacylglycerol Lipase and the fluorogenic substrate 7-hydroxycoumarinyl arachidonate (7-HCA, Biomol ST-502). 400 nL of a test compound at decreasing concentration (ranging from 150 μM down to 1.5 nM) was spotted into a 384-well back plate (PerkinElmer, 6007279) using a Labcyte Echo, followed by addition of 10 μL of MAGL enzyme in assay buffer (50 mM HEPES, pH 7.4, 100 mM NaCl, 5 mM MgCl2, 0.1% Triton X-100 and 25% glycerin). An equal volume of 7-HCA in assay buffer with 10% DMSO was added either immediately (T=0 min) or after a 30 minute incubation (T=30 min) to initiate the reaction. The final concentration of MAGL enzyme was […] and 7-HCA substrate was 5 μM. After these dilutions, the final concentration of the test compound ranged from 3 μM to 0.03 nM. The reaction was allowed to progress for 60 minutes, after which the plate was read at an Ex/Em of 340/465. Percent inhibitions were calculated based on control wells containing no compound (0% inhibition) and a control compound (e.g., a MAGL inhibitor whose activity is known or was previously reported in the literature, such as one with about 100% inhibition). IC50 values were generated based on a four parameter fit model using ABASE software from IDBS. See e.g., Wang, Y. et al., “A Fluorescence-Based Assay for Monoacylglycerol Lipase Compatible with Inhibitor Screening,” Assay and Drug Development Technologies, 2008, Vol. 6 (3) pp 387-393 (reporting an assay for measuring MAGL activity).
To measure MAGL inactivation, the same protocol for the (T=0 min) MAGL inhibition IC50 assay was performed with data collected every minute to acquire enzyme progress curves at decreasing concentrations of compound.

[2] = In vitro intrinsic clearance in human hepatocytes; format: in vitro ADME; details: 1 μM substrate, human hepatocytes 0.5 million viable cells per mL, 37° C.
Protocol: Test Compounds (Example 1-3 and Comparative-Compounds 1-4) were prepared as solutions in DMSO at 3 mM which were then diluted in media containing WEM. The final concentration of DMSO in the incubation was 0.03% (v/v). The in vitro half-life (t½) of each compound was determined in incubations containing substrate (1 μM), human hepatocytes (0.5 million viable cells per mL final concentration) in media containing WEM, 50 mM HEPES buffer (pH 7.4), and 26 mM sodium bicarbonate at 37° C. (all final concentrations) in a 96-well plate. The reaction mixture was pre-warmed at 37° C. for 30 min prior to the initiation of the incubation. The incubation was quenched with acetonitrile containing internal standards at the following time points: 0, 5, 15, 30, 60, 120, and 240 min (individual incubation plates per time point). The samples were vortexed followed by centrifugation. An aliquot of supernatant was transferred to a clean 96-well plate and analyzed by LC/MS-MS using multiple reaction monitoring. For control experiments, hepatocytes were omitted from the incubations.
The hepatocyte t½ (min) was obtained from a log-linear plot of the substrate depletion versus incubation time and was scaled to hepatic intrinsic clearance (CLint,app (μL/min/million cells) using the following equation: […]

[3] = Dog intravenous pharmacokinetic study; format: in vivo, Male beagle dogs; details: male, beagle, IV dose of 1 mg/kg, plasma, read-out: Dog t1/2 (converted)
Protocol: The pharmacokinetic studies in dog were conducted at Pfizer Global Research and Development (Groton, Conn.). All in vivo studies were conducted in accordance with regulations and established guidelines using protocols reviewed and approved by the Pfizer Worldwide Research and Development (WRD, or other) Institutional Animal Care and Use Committee.
Male beagle dogs were fasted overnight with water provided ad libitium. The dogs were fed at approximately 2-4 h post-dose. The dogs (n=2) were administered an IV bolus via the cephalic vein. Compounds of Examples 1-3 were tested along with the following four comparative compounds.
All test compounds were administered an IV dose of 1 mg/kg of the specified compound which was delivered in a dose volume of 0.5 mL/kg. The dose solution was formulated in 10% PEG400/90% of 23% (w/v) HPBCD in de-ionized water for the following test compounds: Example 1, Example 2, and Example 3; in 20% SBECD (sulfobutyl either β-cyclodextrin) for Comparative-Compound 3; in 23% (w/v) HPBCD (hydroxypropyl β-cyclodextrin) in water for Comparative Compound 2; in 12.5.% SBECD in water with 0.25% 0.1N HCl to pH 5 for Comparative Compound 1. Serial blood samples were collected from each dog via the jugular vein prior to dose administration and at the following time points post-dose: 0.083, 0.25, 0.5, 1, 2, 4, 7, and 24 h for all compounds with an additional time point of 0.016 h collected for Comparative Compound 1 only. Blood samples were collected into tubes containing EDTA and placed on wet ice. Following centrifugation to afford plasma, the samples were transferred to polypropylene tubes and stored frozen at −20° C. to −80° C. until analysis.
All plasma samples were quantified via liquid chromatography/tandem mass spectrometry (LC/MS-MS) using multiple reaction monitoring with non-validated methods. The plasma standard curves were generated with species specific plasma. Pharmacokinetic parameters were determined by non-compartmental analysis using Watson LIMS software version 7.4 (Thermo Fisher Scientific, Waltham, Mass.). The area under the concentration versus time curve (AUC) was calculated from the first time point to the last time point with measurable drug concentration using a linear trapezoidal rule. The area under the concentration versus time curve from the first time point to time infinity (AUC(0-inf)) was calculated by extrapolation from the time point where the last measurable concentration occurred to time infinity by dividing the observed concentration at the last time point by the elimination rate constant determined using linear regression of plasma concentration versus time data. The plasma clearance (CLp) was calculated by the equation CLp=dose/AUC(0-inf). The elimination half-life (t½) was calculated using the following equation t1/2=ln 2/k; k is equal to the rate constant of elimination calculated by the least squares of the log transformed data.

SMILES	MAGL kinact/KI [1]	HHEPs CLint, app [2]	half-life [3]
O=C(OC(C(F)(F)F)C(F)(F)F)N1CCC2(CC1)C[C@@H](NS(=O)(=O)C1CC1)CO2 [Example 2, 1,1,1,3,3,3-Hexafluoropropan-2-yl (3R)-3-[(cyclopropylsulfonyl)amino]-1-oxa-8-azaspiro[4.5]decane-8-carboxylate]	2050 1/s per M	3.46 μL/min/million	40.7 h
O=C(OC(C(F)(F)F)C(F)(F)F)N1CCC2(CCC(NS(=O)(=O)CC3CC3)CO2)CC1 (stereo not drawn) [Example 3, 1,1,1,3,3,3-Hexafluoropropan-2-yl 3-{[(cyclopropylmethyl)sulfonyl]amino}-1-oxa-9-azaspiro[5.5]undecane-9-carboxylate]	3160 1/s per M	<3.57 μL/min/million	26.3 h
O=C(OC(C(F)(F)F)C(F)(F)F)N1CCC2(CC1)C[C@@H](NS(=O)(=O)CC1CC1)CO2 [Example 1, 1,1,1,3,3,3-Hexafluoropropan-2-yl (3R)-3-{[(cyclopropylmethyl)sulfonyl]amino}-1-oxa-8-azaspiro[4.5]decane-8-carboxylate]	2990 1/s per M	<4.26 μL/min/million	16.9 h
